Experiments:
[1] = biological target: GST-human KRas166 (G12V) GPPNHP (Homo sapiens, UniProt P01116, G12V); assay: KRas small-molecule screening by SPR (BIACORE T200); type: binding; design: made in house; host or cells: E. coli C41(DE3); key: SPR response units (RU); conditions: compounds at final concentration of 100 uM; immobilised KRAS166 (G12V) GPPNHP; no unit printed (method speaks of response units)
Procedure: For SPR assays pGEX-KRAS(G12V) plasmid was transformed into E. coli C41(DE3). Bacterial cells were cultured at 37° C. to an OD600 of 0.6 and induced with IPTG (final 0.1 mM) at 18° C. over night. The GST fusion proteins were extracted from bacteria pellets after cell disruption in 140 mM NaCl, 2.7 mM KCl, 10 mM NaH2PO4, 1.8 mM KH2PO4, 1 mM EDTA, 2 mM MgCl2 pH 7.4 and purified by glutathione-sepharose column chromatography (GE Healthcare), eluting with 50 mM Tris-HCl pH8.0, 10 mM reduced glutathione, 1 mM DTT, 2 mM MgCl2. The eluted proteins were dialysed against 50 mM Tris-HCl pH8.0, 1 mM DTT, 2 mM MgCl2 and concentrated to 10 mg/ml using a Biomax-30 ULTRAFREE-15 centrifugal filter device (Millipore). Purified KRAS protein was loaded with GPPNHP as described elsewhere (Pacold et al., 2000). Loaded protein was then purified by gel filtration on a HiLoad Superdex-75 HR column (GE Healthcare) in 1×PBS pH7.4, 5 mM MgCl2 and concentrated for storage. Protocol for KRas small-molecule screening and affinity measurements by SPR
To a previously immobilized CM5 chip (GE Healthcare BR-1005-30) with anti GST antibody via amine coupling method, GST in channel 1 and GST-human KRas166 (G12V) GPPNHP in channel 2 were immobilised. GST was immobilised between 2,000 and 5,000 Response units. KRAS166 (G12V) was immobilized between 10,000 to 15,000 Response Units.
In a 96 well plate, compounds were diluted in […], 5 mM MgCl2 and 5% DMSO Buffer to a final concentration of 100 uM. DCAI was used as positive control. Experiment also included a solvent correction curve for 5% DMSO. Screening and evaluation of the protein immobilization and the compounds screening was done accordingly to the BIACORE T200 control and evaluation software.
Calculations for how many response units are required for a 1:1 ratio of compound/protein interaction are shown below. • Protein immobilisation: 10,000 RU; average fragment 300 Da in size. Rmax=(MWA/MWL)×RL×SM • MWA is the molecular weight of the analyte in Da • MWL is the molecular weight of the ligand in Da • RL is the immobilization level in RU • SM is the molar stoichiometry (assume 1:1) • Rmax=300/47,500×10,000×1 • Rmax=63 RU. BRET2 Cell Assay

RASG12D/CRAF FL = assay: BRET2 cell assay with BRET-based RAS biosensor (RAS-effector) in HEK293T; conditions: 10 uM compound, 20 hours
Procedure: 650,000 HEK293T were seeded in each well of a 6 well plate. 24 hours later, cells were transfected with an appropriated BRET-based RAS biosensor (i.e. RAS-effector) using Lipofectamine 2000 transfection reagent (Thermo-Fisher). Cells were detached 24 hours later and washed with PBS and seeded in a white 96 well plate (clear bottom, PerkinElmer, cat #6005181) in OptiMEM no phenol red medium (Life Technologies) complemented with 4% FBS. Cells were left for 4 hours at 37° C. before adding compounds. Stock compounds were held at 10 mM in 100% DMSO and diluted in OptiMEM no red phenol+4% FBS to reach 10× the final concentration (2% DMSO for each concentration). The final concentrations in the cells were 0, 5, 10 and 20 μM (therefore the intermediate 10× concentrations were 0, 50, 100 and 200 μM. 10 μL of 10× compounds were added in each well of the 96 well plate to 0, 5, 10 and 20 μM final concentrations (with final 0.2% DMSO each). Quadruplicates were performed for each point. Cells were left for an additional 20 hours at 37° C. before the BRET2 signal reading directly after addition of Coelenterazine 400a substrate (10 μM final) to cells (Cayman Chemicals, cat #16157). BRET2 reading was carried out on an Envision instrument (2103 Multilabel Reader, PerkinElmer) with the BRET2 Dual Emission optical module (515 nm±30 and 410 nm±80; PerkinElmer).

[2] = system: DLD1 cells (ATCC CCL-221); assay: Cell viability assay, DLD-1 (CellTiter-Glo); type: cell-based; conditions: DLD-1 cells; for IC50: Homo sapiens, 72 h, dose response 5, 10, 15, 20 μM; for effect on DLD-1 viability over the range of concentrations: 72 hour, 5, 10, 15, 20 μM (FIG. 1)
Procedure: DLD1 cells (ATCC CCL-221) are cultured in RPMI-1640 medium plus 10% foetal calf serum and 2 mM L-glutamine at 37° C. 5% CO2. Cells are plated onto white clear bottom 96-well plates (5000 cells/well in 200 μl media) and left to adhere overnight at 37° C., 5% CO2. Next day, test compound (1 μl at 200× concentration in 100% DMSO) is added to give final test compound concentration 1× in 0.5% DMSO. After 72 h of incubation at 37° C. 5% CO2, 20 μl CellTiter-Glo reagent (Promega G7572) is added into each well. Plates are incubated at room temperature with shaking for 30 min and then luminescence is read using a PheraStar plate reader. The concentration of compounds that decrease cell viability by 50% is calculated from dose response curves generated using Dotmatics data analysis software Results

Row | Molecule | SPR [1] | BRET RASG12D/CRAF FL % Inhibition (10 uM) (RASG12D/CRAF FL) [%] | IC50 [2] [µM] | effect on DLD-1 viability over the range of concentrations [2]
1 | COc1cccc(-c2ccc(Nc3cc(C(=O)N(C)C)ccc3C)cc2)c1 [Example 10, 3-((3′-methoxy-[1,1′-biphenyl]-4-yl)amino)-N,N,4-trimethylbenzamide] | 28 | 0 | – | –
2 | COc1cccc(-c2ccc(Nc3cccc(CN4CC(C)OC(C)C4)c3)cc2)c1 (centres unmarked) [Example 12, N-(3-((2,6-dimethylmorpholino)methyl)phenyl)-3′-methoxy-[1,1′-biphenyl]-4-amine] | 55 | 0 | – | –
3 | COc1nc(-c2cccc3c2OCCO3)ccc1Nc1ccc(CN(C)C)cc1 [Abd-7, reference compound] | – | – | 8.2 | –
4 | COc1cccc(-c2ccc(Nc3ccc(C(=O)NCC4CCNCC4)cc3)cc2)c1 [Example 20, 4-((3′-methoxy-[1,1′-biphenyl]-4-yl)amino)-N-(piperidin-4-ylmethyl)benzamide] | 1426 | – | – | –
5 | COc1cccc(-c2ccc(Nc3ccc(CN(C)C)cc3)c(OC)n2)c1 [Example 14, N-(4-((dimethylamino)methyl)phenyl)-2-methoxy-6-(3-methoxyphenyl)pyridin-3-amine] | 152 | 42 | – | –
6 | COc1cccc(-c2ccc(Nc3cccc(C(=O)NCC4CCNCC4)c3)cc2)c1 [Example 17, 3-((3′-methoxy-[1,1′-biphenyl]-4-yl)amino)-N-(piperidin-4-ylmethyl)benzamide] | 396 | – | – | –
7 | O=C(NCC1COc2ccccc2O1)c1ccco1 (centres unmarked) [Abd-2, reference compound] | – | – | – | does not affect DLD-1 viability
8 | COc1cc(C)cc(-c2ccc(Nc3ccc(CN(C)C)cc3)cc2)c1 [Example 7, N-(4-((dimethylamino)methyl)phenyl)-3′-methoxy-5′-methyl-[1,1′-biphenyl]-4-amine] | 264 | 6 | – | –
9 | COc1cccc(-c2ccc(Nc3ccc(CN(C)C)cc3)c(OC)c2)c1 [Example 2, N-(4-((dimethylamino)methyl)phenyl)-3,3′-dimethoxy-[1,1′-biphenyl]-4-amine] | 233 | 18 | 7.2 | –
10 | N-(3-((2,6-dimethylmorpholino)methyl)phenyl)-3′-methoxy-[1,1′-biphenyl]-4-amine [Example 13] | 43 | 9 | – | –
11 | COc1cccc(-c2ccc(Nc3ccc(C(=O)NCC4CCN(C)CC4)cc3)cc2)c1 [Example 21, 4-((3′-methoxy-[1,1′-biphenyl]-4-yl)amino)-N-((1-methylpiperidin-4-yl)methyl)benzamide] | 1583 | – | – | –
12 | COc1cccc(-c2ccc(Nc3cc(C)cc(C)c3)cc2)c1 [Example 9, N-(3,5-dimethylphenyl)-3′-methoxy-[1,1′-biphenyl]-4-amine] | 28 | 2 | – | –
13 | COc1cccc(-c2ccc(Nc3ccc(CN(C)C)cc3)c(OC)c2F)c1 [Example 3, N-(4-((dimethylamino)methyl)phenyl)-2-fluoro-3,3′-dimethoxy-[1,1′-biphenyl]-4-amine] | 177 | 26 | 4.5 | –
14 | COc1cc(-c2ccc(Nc3ccc(CN(C)C)cc3)cc2)ccc1F [Example 4, N-(4-((dimethylamino)methyl)phenyl)-4′-fluoro-3′-methoxy-[1,1′-biphenyl]-4-amine] | 80 | 24 | – | –
15 | COc1cccc(-c2ccc(Nc3ccc(CN(C)C)cc3)cn2)c1 [Example 16, N-(4-((dimethylamino)methyl)phenyl)-6-(3-methoxyphenyl)pyridin-3-amine] | 209 | 0 | – | –
16 | COc1cccc(-c2ccc(Nc3cc(CN(C)C)ccc3C)cc2)c1 [Example 11, N-(5-((dimethylamino)methyl)-2-methylphenyl)-3′-methoxy-[1,1′-biphenyl]-4-amine] | 69 | 1 | – | –
17 | COc1cccc(-c2ccc(Nc3ccc(CN(C)C)cc3)cc2)c1 [Example 1, N-(4-((dimethylamino)methyl)phenyl)-3′-methoxy-[1,1′-biphenyl]-4-amine] | 230 | 24 | 5.3 | –
18 | COc1cccc(-c2ccc(Nc3cccc(CN(C)C)c3)c(OC)n2)c1 [Example 15, N-(3-((dimethylamino)methyl)phenyl)-2-methoxy-6-(3-methoxyphenyl)pyridin-3-amine] | 84 | 35 | – | –
19 | COc1cc(F)cc(-c2ccc(Nc3ccc(CN(C)C)cc3)cc2)c1 [Example 6, N-(4-((dimethylamino)methyl)phenyl)-3′-fluoro-5′-methoxy-[1,1′-biphenyl]-4-amine] | 245 | 22 | – | –
20 | COc1cc(-c2ccc(Nc3ccc(CN(C)C)cc3)cc2)cc(F)c1F [Example 5, N-(4-((dimethylamino)methyl)phenyl)-3′,4′-difluoro-5′-methoxy-[1,1′-biphenyl]-4-amine] | 127 | 33 | – | –
21 | COc1cccc(-c2ccc(Nc3ccc(C(=O)NCC4CCN(Cc5ccccc5)CC4)cc3)cc2)c1 [Example 23, N-((1-benzylpiperidin-4-yl)methyl)-4-((3′-methoxy-[1,1′-biphenyl]-4-yl)amino)benzamide] | 99 | – | – | –
22 | COc1cccc(-c2cccc(CC3(C(=O)NCCn4ccnc4)CCOCC3)c2)c1 [PPIN-2, reference compound] | – | – | – | does not affect DLD-1 viability
23 | COc1cccc(-c2ccc(Nc3cc(C)cc(C)c3)c(OC)c2F)c1 [Example 8, N-(3,5-dimethylphenyl)-2-fluoro-3,3′-dimethoxy-[1,1′-biphenyl]-4-amine] | 30 | 0 | – | –
24 | COc1cc(-c2ccc(Nc3ccc(CN(C)C)cc3)cc2)ccc1C [Example 18, N-(4-((dimethylamino)methyl)phenyl)-3′-methoxy-4′-methyl-[1,1′-biphenyl]-4-amine] | 119 | 13 | – | –

— patent US11970469B2 (Oxford University Innovation Limited, priority 2018, dated 2024)
